{"source": "PubChem BioAssay (NCI)", "experiment_in_all_cases": "inhibition of tumour cell growth, NCI panel, 48 h", "key": {"NCI-H522 lung": {"test_system": "NCI-H522 lung"}, "OVCAR-4 ovarian": {"test_system": "OVCAR-4 ovarian"}, "A498 renal": {"test_system": "A498 renal"}, "SK-MEL-2 melanoma": {"test_system": "SK-MEL-2 melanoma"}, "HCT-15 colon": {"test_system": "HCT-15 colon"}, "HOP-62 NSCLC": {"test_system": "HOP-62 NSCLC"}, "K-562 leukemia": {"test_system": "K-562 leukemia"}, "RXF 393 renal": {"test_system": "RXF 393 renal"}, "UACC-257 melanoma": {"test_system": "UACC-257 melanoma"}, "MDA-N": {"test_system": "MDA-N"}, "SF-539 CNS": {"test_system": "SF-539 CNS"}, "HCT-116 colon": {"test_system": "HCT-116 colon"}, "DU-145 prostate": {"test_system": "DU-145 prostate"}, "SN12C renal": {"test_system": "SN12C renal"}, "MCF7 breast": {"test_system": "MCF7 breast"}, "SNB-75 CNS": {"test_system": "SNB-75 CNS"}, "NCI-H226 lung": {"test_system": "NCI-H226 lung"}, "SW-620 colon": {"test_system": "SW-620 colon"}, "786-0 renal": {"test_system": "786-0 renal"}, "HT29 colon": {"test_system": "HT29 colon"}, "PC-3 prostate": {"test_system": "PC-3 prostate"}, "UACC-62 melanoma": {"test_system": "UACC-62 melanoma"}, "SK-MEL-5 melanoma": {"test_system": "SK-MEL-5 melanoma"}, "NCI-H460 lung": {"test_system": "NCI-H460 lung"}, "MALME-3M melanoma": {"test_system": "MALME-3M melanoma"}, "RPMI-8226 leukemia": {"test_system": "RPMI-8226 leukemia"}, "MDA-MB-435": {"test_system": "MDA-MB-435"}, "SF-268 CNS": {"test_system": "SF-268 CNS"}, "SR leukemia": {"test_system": "SR leukemia"}, "SF-295 CNS": {"test_system": "SF-295 CNS"}, "OVCAR-8 ovarian": {"test_system": "OVCAR-8 ovarian"}, "HL-60(TB) leukemia": {"test_system": "HL-60(TB) leukemia"}, "CAKI-1 renal": {"test_system": "CAKI-1 renal"}, "COLO 205 colon": {"test_system": "COLO 205 colon"}, "EKVX NSCLC": {"test_system": "EKVX NSCLC"}, "HOP-92 NSCLC": {"test_system": "HOP-92 NSCLC"}, "T-47D breast": {"test_system": "T-47D breast"}, "SNB-19 CNS": {"test_system": "SNB-19 CNS"}, "SK-OV-3 ovarian": {"test_system": "SK-OV-3 ovarian"}, "ACHN renal": {"test_system": "ACHN renal"}, "HCC-2998 colon": {"test_system": "HCC-2998 colon"}, "OVCAR-3 ovarian": {"test_system": "OVCAR-3 ovarian"}, "KM12 colon": {"test_system": "KM12 colon"}, "UO-31 renal": {"test_system": "UO-31 renal"}, "CCRF-CEM leukemia": {"test_system": "CCRF-CEM leukemia"}, "HS 578T breast": {"test_system": "HS 578T breast"}, "SK-MEL-28 melanoma": {"test_system": "SK-MEL-28 melanoma"}, "TK-10 renal": {"test_system": "TK-10 renal"}, "NCI/ADR-RES ovarian": {"test_system": "NCI/ADR-RES ovarian"}, "M14 melanoma": {"test_system": "M14 melanoma"}, "U251 CNS": {"test_system": "U251 CNS"}, "NCI-H23 lung": {"test_system": "NCI-H23 lung"}, "MDA-MB-231 breast": {"test_system": "MDA-MB-231 breast"}, "BT-549 breast": {"test_system": "BT-549 breast"}, "OVCAR-5 ovarian": {"test_system": "OVCAR-5 ovarian"}, "LOX IMVI melanoma": {"test_system": "LOX IMVI melanoma"}, "MOLT-4 leukemia": {"test_system": "MOLT-4 leukemia"}, "A549 NSCLC": {"test_system": "A549 NSCLC"}, "IGROV1 ovarian": {"test_system": "IGROV1 ovarian"}}, "note": "Values joined by “and” are separate entries in the source; they are usually repeats but may differ in a detail not shown here. Equal values may be shown once.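 Cells were grown in 96-well plates and exposed to each compound for 48 hours at five concentrations; endpoints were interpolated linearly between bracketing concentrations, or set to the highest concentration if not reached. GI50: concentration for 50% inhibition of growth. At the TGI there is no net growth.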"}
{"smiles": "CC1CCC2(NC1)OC1CC3C4CC=C5CC(O)CCC5(C)C4CCC3(C)C1C2C", "note": "(stereo unspecified)", "values": [{"measurement": "TGI", "setting": "NCI-H522 lung", "value": "> 100 µM and 62.9 µM"}, {"measurement": "GI50", "setting": "OVCAR-4 ovarian", "value": "22.3 µM and 5.29 µM"}, {"measurement": "TGI", "setting": "OVCAR-4 ovarian", "value": "58.8 µM and 53.7 µM"}, {"measurement": "GI50", "setting": "A498 renal", "value": "18.7 µM and 5.56 µM"}, {"measurement": "TGI", "setting": "A498 renal", "value": "38.5 µM and 14.5 µM"}, {"measurement": "TGI", "setting": "SK-MEL-2 melanoma", "value": "> 100 µM and 45.4 µM"}, {"measurement": "TGI", "setting": "HCT-15 colon", "value": "> 100", "unit": "µM"}, {"measurement": "GI50", "setting": "HOP-62 NSCLC", "value": "27.4 µM and 9.34 µM"}, {"measurement": "TGI", "setting": "HOP-62 NSCLC", "value": "92.4 µM and 46.2 µM"}, {"measurement": "TGI", "setting": "K-562 leukemia", "value": "> 100", "unit": "µM"}, {"measurement": "TGI", "setting": "RXF 393 renal", "value": "60.2 µM and 39.9 µM"}, {"measurement": "TGI", "setting": "UACC-257 melanoma", "value": "> 100", "unit": "µM"}, {"measurement": "GI50", "setting": "MDA-N", "value": "31.1 µM and 12.2 µM"}, {"measurement": "TGI", "setting": "MDA-N", "value": "> 100", "unit": "µM"}, {"measurement": "TGI", "setting": "SF-539 CNS", "value": "40.1 µM and 29.4 µM"}, {"measurement": "TGI", "setting": "HCT-116 colon", "value": "53.5 µM and > 68.1 µM"}, {"measurement": "GI50", "setting": "DU-145 prostate", "value": "94.2 µM and 35.3 µM"}, {"measurement": "TGI", "setting": "DU-145 prostate", "value": "> 100", "unit": "µM"}, {"measurement": "TGI", "setting": "SN12C renal", "value": "50.8 µM and 38.4 µM"}, {"measurement": "TGI", "setting": "MCF7 breast", "value": "> 100", "unit": "µM"}, {"measurement": "TGI", "setting": "SNB-75 CNS", "value": 15.3, "unit": "µM"}, {"measurement": "TGI", "setting": "NCI-H226 lung", "value": "> 100 µM and 66.5 µM"}, {"measurement": "TGI", "setting": "SW-620 colon", "value": "> 100", "unit": "µM"}, {"measurement": "GI50", "setting": "786-0 renal", "value": "14.5 µM and 3.24 µM"}, {"measurement": "TGI", "setting": "786-0 renal", "value": "30.1 µM and 11.9 µM"}, {"measurement": "TGI", "setting": "HT29 colon", "value": "> 100", "unit": "µM"}, {"measurement": "TGI", "setting": "PC-3 prostate", "value": "> 100", "unit": "µM"}, {"measurement": "TGI", "setting": "UACC-62 melanoma", "value": "65.1 µM and 50.4 µM"}, {"measurement": "GI50", "setting": "SK-MEL-5 melanoma", "value": "59 µM and 27.3 µM"}, {"measurement": "TGI", "setting": "SK-MEL-5 melanoma", "value": "> 100", "unit": "µM"}, {"measurement": "TGI", "setting": "NCI-H460 lung", "value": "> 100", "unit": "µM"}, {"measurement": "GI50", "setting": "MALME-3M melanoma", "value": "34.1 µM and 13.5 µM"}, {"measurement": "TGI", "setting": "MALME-3M melanoma", "value": "> 100 µM and 34.3 µM"}, {"measurement": "TGI", "setting": "RPMI-8226 leukemia", "value": "93.3 µM and 70.2 µM"}, {"measurement": "GI50", "setting": "MDA-MB-435", "value": "48.7 µM and 16.6 µM"}, {"measurement": "TGI", "setting": "MDA-MB-435", "value": "> 100", "unit": "µM"}, {"measurement": "GI50", "setting": "SF-268 CNS", "value": "39.8 µM and 16.1 µM"}, {"measurement": "TGI", "setting": "SF-268 CNS", "value": "> 100", "unit": "µM"}, {"measurement": "TGI", "setting": "SR leukemia", "value": "9.63 µM and 12.4 µM"}, {"measurement": "TGI", "setting": "SF-295 CNS", "value": "92.7 µM and > 64.3 µM"}, {"measurement": "GI50", "setting": "OVCAR-8 ovarian", "value": "10.6 µM and 5.16 µM"}, {"measurement": "TGI", "setting": "OVCAR-8 ovarian", "value": "35.9 µM and 49 µM"}, {"measurement": "TGI", "setting": "HL-60(TB) leukemia", "value": "31.5 µM and 29.9 µM"}, {"measurement": "GI50", "setting": "CAKI-1 renal", "value": "25.5 µM and 11.2 µM"}, {"measurement": "TGI", "setting": "CAKI-1 renal", "value": "71.6 µM and 33 µM"}, {"measurement": "TGI", "setting": "COLO 205 colon", "value": "> 100", "unit": "µM"}, {"measurement": "TGI", "setting": "EKVX NSCLC", "value": "> 100", "unit": "µM"}, {"measurement": "TGI", "setting": "HOP-92 NSCLC", "value": "49.5 µM and 46.2 µM"}, {"measurement": "TGI", "setting": "T-47D breast", "value": "49 µM and 48.9 µM"}, {"measurement": "GI50", "setting": "SNB-19 CNS", "value": "18.9 µM and 6.38 µM"}, {"measurement": "TGI", "setting": "SNB-19 CNS", "value": "99.5 µM and 62.1 µM"}, {"measurement": "TGI", "setting": "SK-OV-3 ovarian", "value": "69.2 µM and 38.6 µM"}, {"measurement": "GI50", "setting": "ACHN renal", "value": "29.8 µM and 11.1 µM"}, {"measurement": "TGI", "setting": "ACHN renal", "value": "91.7 µM and 30 µM"}, {"measurement": "GI50", "setting": "HCC-2998 colon", "value": "31.7 µM and 15.2 µM"}, {"measurement": "TGI", "setting": "HCC-2998 colon", "value": "> 100 µM and 56 µM"}, {"measurement": "GI50", "setting": "OVCAR-3 ovarian", "value": "28 µM and 8.98 µM"}, {"measurement": "TGI", "setting": "OVCAR-3 ovarian", "value": "> 100 µM and 32.5 µM"}, {"measurement": "GI50", "setting": "KM12 colon", "value": "14 µM and 6.75 µM"}, {"measurement": "TGI", "setting": "KM12 colon", "value": "47.4 µM and 64.4 µM"}, {"measurement": "GI50", "setting": "UO-31 renal", "value": "18.2 µM and 6.3 µM"}, {"measurement": "TGI", "setting": "UO-31 renal", "value": "37.8 µM and 13.8 µM"}, {"measurement": "TGI", "setting": "CCRF-CEM leukemia", "value": "40 µM and 41.5 µM"}, {"measurement": "TGI", "setting": "HS 578T breast", "value": "> 100 µM and 37 µM"}, {"measurement": "GI50", "setting": "SK-MEL-28 melanoma", "value": "56.4 µM and 25.6 µM"}, {"measurement": "TGI", "setting": "SK-MEL-28 melanoma", "value": "> 100", "unit": "µM"}, {"measurement": "TGI", "setting": "TK-10 renal", "value": "47.9 µM and 44.7 µM"}, {"measurement": "TGI", "setting": "NCI/ADR-RES ovarian", "value": "51.3 µM and > 57.1 µM"}, {"measurement": "TGI", "setting": "M14 melanoma", "value": "> 100", "unit": "µM"}, {"measurement": "GI50", "setting": "U251 CNS", "value": "23.7 µM and 4.92 µM"}, {"measurement": "TGI", "setting": "U251 CNS", "value": "64.7 µM and 23.5 µM"}, {"measurement": "TGI", "setting": "NCI-H23 lung", "value": "> 100", "unit": "µM"}, {"measurement": "TGI", "setting": "MDA-MB-231 breast", "value": "51.7 µM and 37 µM"}, {"measurement": "TGI", "setting": "BT-549 breast", "value": "> 100", "unit": "µM"}, {"measurement": "TGI", "setting": "OVCAR-5 ovarian", "value": "> 100", "unit": "µM"}, {"measurement": "GI50", "setting": "LOX IMVI melanoma", "value": "19.9 µM and 4.93 µM"}, {"measurement": "TGI", "setting": "LOX IMVI melanoma", "value": "57.3 µM and > 63.8 µM"}, {"measurement": "TGI", "setting": "MOLT-4 leukemia", "value": "55.5 µM and 59.5 µM"}, {"measurement": "GI50", "setting": "A549 NSCLC", "value": "42.4 µM and 20.3 µM"}, {"measurement": "TGI", "setting": "A549 NSCLC", "value": "> 100", "unit": "µM"}, {"measurement": "TGI", "setting": "IGROV1 ovarian", "value": "> 100", "unit": "µM"}]}
